# From patent publication EP0033241A2, “Pharmaceutical compositions for rectal administration” (priority 1980, dated 1981)
# Counter-ions that a name gives are not always drawn.
# Legend:
# [1] = in vivo; parameters: species or system SD strain male rats; conditions: rat
# Excerpt: The numeral 25 in the term "POE (25)" designates the average number of added moles of POE.
# [2] = in vivo; conditions: rat, im, 50 mg/kg, AUC^°6
# [3] = AUC 0 to 4 hours of cefsulodin (sodium) suppositories with polyoxyethylene cholesterol ethers (Experiment Example 4); format: in vivo, rats; conditions: rat, plasma, 20 mg/kg, rectal suppository 50 mg, 10 % cefsulodin (sodium), Witepsol H-5
# Protocol: The anuses were closed with an adhesive agent, and blood samples were taken from the tail veins with time elapsed to determine quantitatively the plasma levels of the compounds having a β-lactam ring by means of the biological assay method.
# By incorporating 10 % of cefsulodin (sodium) and 5 % of polyoxyethylene cholesterol ether as shown in Table 5 into Witepsol H-5 used as an excipient, suppositories (50 mg each) were prepared, and administered rectally to rats, in the same manner as in Experiment Example 1, to determine quantitatively the concentration levels of the drug substance in plasma, thereby calculating AUC over the period of 0 to 4 hours. The dosage was 20 mg/Kg.
SMILES,AUC ([1]; im),also measured
"CO/N=C(\C(=O)N[C@@H]1C(=O)N2C(C(=O)O)=CCS[C@H]12)c1csc(N)n1 [FK-749, cephthizoxime]",77800 ng·h/mL,–
"CO/N=C(\C(=O)N[C@@H]1C(=O)N2C(C(=O)O)=C(CSc3nnnn3C)CS[C@H]12)c1csc(N)n1 [Cefmenoxime (1/2HCl), 7β-[2-(2-aminothiazol-4-yl)-[Z]-2-methoxyimino-acetamide]-3-[(1-methyl-1H-tetrazol-5-yl)thiomethyl]-ceph-3-em-4-carboxylate.l/2hydrochloride]",190000 ng·h/mL,AUC at 6 h [2]: 190000 ng·h/mL
"NC(=O)c1cc[n+](CC2=C(C(=O)O)N3C(=O)[C@@H](NC(=O)[C@@H](c4ccccc4)S(=O)(=O)[O-])[C@H]3SC2)cc1 [Cefsulodin sodium, 3-(4-carbamoyl-l-pyridinio-methyl)-7β-(D-α-sulfophenylacetamide)-ceph-3-em-4-carboxylate monosodium salt]",54000 ng·h/mL,AUC(0-t) at 4 h ([3]; 5 % POE (10) cholesterol ether): 30400 ng·h/mL; AUC(0-t) at 4 h ([3]; 5 % POE (20) cholesterol ether): 43000 ng·h/mL; AUC(0-t) at 4 h ([3]; 5 % POE (25) cholesterol ether): 35900 ng·h/mL; AUC(0-t) at 4 h ([3]; 5 % POE (30) cholesterol ether): 37900 ng·h/mL; AUC(0-t) at 4 h ([3]; no polyoxyethylene cholesterol ether (None)): 500 ng·h/mL
"CC1(C)S[C@@H]2[C@H](NC(=O)[C@H](N)c3ccccc3)C(=O)N2[C@H]1C(=O)O [Ampicillin, ampicillin]",14800 ng·h/mL,–
"CN(C)CCn1nnnc1SCC1=C(C(=O)O)N2C(=O)[C@@H](NC(=O)Cc3csc(N)n3)[C@H]2SC1 [Cefotiam, cefotiam]",38700 ng·h/mL,–
"Cc1nnc(SCC2=C(C(=O)O)N3C(=O)[C@@H](NC(=O)Cn4cnnn4)[C@H]3SC2)s1 [Cefazolin, cefazolin]",348000 ng·h/mL,–

# Further lines, with some results ahead:
AUC ([1]; im),SMILES,also measured
144000 ng·h/mL,"CO/N=C(\C(=O)N[C@@H]1C(=O)N2C(C(=O)O)=C(COC(C)=O)CS[C@H]12)c1csc(N)n1 [HR-756, cefotaxime]",–
192000 ng·h/mL,"CC1(C)S[C@@H]2[C@H](NC(=O)C(c3ccccc3)S(=O)(=O)O)C(=O)N2[C@H]1C(=O)O (stereo partly shown) [Sulbenicillin, sulbenicillin]",AUC [1]: 92800 ng·h/mL
105000 ng·h/mL,"CC1(C)S[C@@H]2[C@H](/N=C/N3CCCCCC3)C(=O)N2[C@H]1C(=O)O [Mecillinam, 6a-[(hexahydro-lH-azepin-l-yl)-methyleneamino]penicillanic acid.sodium salt]",–
